Measurements from patent US11458189B2, “Cytoprotective drugs” (BALMES TRANSPLANTATION, priority 2017, dated 2022).
Starred links: 1 amine or outer side, 2 acyl side, 3 side chain; linkers in the order of their positions; H or OH if unused. Positions of bridges follow the written chain, without caps; N, C: chain ends. Non-standard residues stand in square brackets, D forms with d. Residues, ends and D or L forms follow the SMILES beside them. *: point of attachment. hTyr(3S-OH,4S-OH,3'-OSO3H) = N[C@H](C(=O)O)[C@H](O)[C@@H](O)c1ccc(O)c(OS(=O)(=O)O)c1; Orn(4R-OH,5R-OH) = O=C([C@H](C[C@@H](O)[C@@H](O)N[*:3])N[*:1])[*:2]; Pro(3S-OH,4S-Me) = C[C@H]1CN[C@H](C(=O)O)[C@H]1O; X1 = CCCCCOc1ccc(-c2cc(-c3ccc(C(=O)*)cc3)no2)cc1; Gln(3R-OH) = NC(=O)C[C@@H](O)[C@H](N)C(=O)O; Hyp = O=C(O)[C@@H]1C[C@@H](O)CN1

Test system: Rat Primary Kidney Glomerular Endothelial cells
Assay: Oxygen and glucose deprivation followed by replenishment, cell survival (calcein AM), rat glomerular endothelial cells;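 on Survival rate (%): 100% is hypoxia control with glucose and 0% is untreated OGD control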
Format: cell-based
Description: Anidulafungin and micafungin were tested on Human Renal Glomerular Endothelial Cells (HRGEC, Innoprot P10665), on Human Renal Proximal Tubular Epithelial Cells (HRPTEpiC, Innoprot P10662), on Human Astrocytes (HA, caltag SC-1800), on Human Cardiac Microvascular Endothelial Cells (HCMEC, Caltag SC-6000), on Human Hepatic Sinusoidal Endothelial Cells (HHSEC, Caltag SC-5000), on Rat Primary Kidney Glomerular Endothelial cells (Cellbiologics, RN-6014G) and on Bovine Brain Microvascular Endothelial Cells (BBMEC, Caltag SC-B100).
In a first phase, these isolated, purified and cryopreserved cells are thawed and multiplied according to the supplier's recommendations in T75 or T175 flasks pre-coated with 2 μg of fibronectin/[…] (CORNING) for HRGEC, HCMEC, HHSEC and BBMEC, or 2 μg poly-L-lysin/cm^2 (Caltag SC-0403) for HRPTEpiC and HA, or 15 mL/flask 175 cm^2 gelatin-based solution (Cellbiologics) in the presence of endothelial cell supplemented growth medium ECM (P60104, INNOPROT, Caltag, SC-1001) for HRGEC, HCMEC, HHSEC, RPKGEC or BBMEC, or astrocyte cell supplemented growth medium AM (Caltag SC-1801) for HA or epithelial cell supplemented growth medium EpiCM (P60106, INNOPROT) for HRPTEpiC, at 37° C. under 5% CO2 and saturated humidity until their confluency. They are then harvested by trypsinization according to the method described by the supplier for exactly 5 minutes and then reseeded in new flasks a maximum of three times.
To carry out the oxygen and glucose deprivation test followed by their replenishment, the cells will be seeded in 96-well black plates with transparent flat bottom (GREINER). Once a sufficient number of cells has been obtained to allow seeding of 2000 to 15000 cells per well of 96-well plates depending on the cell type, the cells are seeded in these 96-well plates previously coated with an extracellular matrix as listed above for the flasks. The cells are cultured for 5 to 8 days according to the cell type, in the presence of the same growth medium as in the flask as described above except for HRGEC and HRPTEpiC for which DMEM (DUTSCHER) with 1 g/L of supplemented glucose is used, at 37° C. under 5% CO2 and saturated humidity to obtain confluency.
On the first day of oxygen and glucose deprivation, (5th, 6th, 7th or 8th day of culture), the culture conditions are drastically changed. The medium of all plates is removed and replaced by DMEM (DUTSCHER) medium without glucose and supplemented only with 1% penicillin-streptomycin (DUTSCHER). Anidulafungin or micafungin dissolved in dimethyl sulfoxide (DMSO) is then added to each well at the desired concentration, resulting in a maximum of 1% DMSO, and the plates are placed under hypoxia at <1% 02 and 5% CO2 at 37° C. for 24 hours of culture. Each compound was tested in a concentration range.
After 24 hours, the growth medium is changed and replaced by a richer medium, DMEM (DUTSCHER) at 1 g/L glucose and 2% FBS (INNOPROT) and 1% penicillin-streptomycin (DUTSCHER). These media will have been pre-equilibrated at 37° C. in advance. The cells are then returned to culture at 37° C. under 20% 02 and 5% CO2 for 22h.
After 22 hours of reoxygenation, the potential protective effect of anidulafungin or micafungin is measured by a cell viability test using calcein AM (CORNING), which is a dye substrate. The calcein AM can easily cross the cell membrane of the viable cells. The AM ester groups mask the part of the molecule that chelates calcium. Once inside the cells, the (non-fluorescent) calcein AM is hydrolyzed to (fluorescent) calcein by endogenous esterases. The resulting calcein molecule binds to calcium inside the cell and remains trapped inside the cell. These molecules emit strong green fluorescence when subjected to […] of a particular wavelength (495 nm). Since dead cells lack esterase activity, only living cells are labelled.
This cell viability test is performed in two steps. […]

## CCCCCOc1ccc(-c2cc(-c3ccc(C(=O)N[C@H]4C[C@@H](O)[C@@H](O)NC(=O)[C@@H]5[C@@H](O)[C@@H](C)CN5C(=O)[C@H]([C@H](O)CC(N)=O)NC(=O)[C@H]([C@H](O)[C@@H](O)c5ccc(O)c(OS(=O)(=O)O)c5)NC(=O)[C@@H]5C[C@@H](O)CN5C(=O)[C@H]([C@@H](C)O)NC4=O)cc3)no2)cc1 [Micafungin, {5-[(1S,2S)-2-[(3S,6S,9S,11R,15S,18S,20R,21R,24S,25S,26S)-3-[(1R)-2-carbamoyl-1-hydroxyethyl]-11,20,21,25-tetrahydroxy-15-[(1R)-1-hydroxyethyl]-26-methyl-2,5,8,14,17,23-hexaoxo-18-[(4-{5-[4-(pentyloxy)phenyl]-1,2-oxazol-3-yl}benzene)amido]-1,4,7,13,16,22-hexaazatricyclo[22.3.0.0]heptacosan-6-yl]-1,2-dihydroxyethyl]-2-hydroxyphenyl}oxidanesulfonic acid] (X1-[Orn(4R-OH,5R-OH)]T[Hyp][hTyr(3S-OH,4S-OH,3'-OSO3H)][Gln(3R-OH)][Pro(3S-OH,4S-Me)]; lactam 1-C)
[Micafungin] log μM 1.176091
  Globalfluo assay 1: 17307060 arbitrary units
  Globalfluo assay 2: 19173810 arbitrary units
  Globalfluo assay 3: 18057880 arbitrary units
  Mean globalfluo: 18179583 arbitrary units
  Survival rate (%): 57%
[Micafungin] log μM 1.30103
  Globalfluo assay 1: 21761030 arbitrary units
  Globalfluo assay 2: 21216730 arbitrary units
  Globalfluo assay 3: 18246850 arbitrary units
  Mean globalfluo: 20408203 arbitrary units
  Survival rate (%): 66%
[Micafungin] log μM 1.477121
  Globalfluo assay 1: 23916400 arbitrary units
  Globalfluo assay 2: 22885210 arbitrary units
  Globalfluo assay 3: 21104460 arbitrary units
  Mean globalfluo: 22635357 arbitrary units
  Survival rate (%): 75%
[Micafungin] log μM 1.60206
  Globalfluo assay 1: 21279700 arbitrary units
  Globalfluo assay 2: 21255650 arbitrary units
  Globalfluo assay 3: 20543100 arbitrary units
  Mean globalfluo: 21026150 arbitrary units
  Survival rate (%): 69%
[Micafungin] log μM 1.778151
  Globalfluo assay 1: 22384980 arbitrary units
  Globalfluo assay 2: 24586670 arbitrary units
  Globalfluo assay 3: 22823930 arbitrary units
  Mean globalfluo: 23265193 arbitrary units
  Survival rate (%): 78%
[Micafungin] log μM 1.90309
  Globalfluo assay 1: 25482590 arbitrary units
  Globalfluo assay 2: 16667370 arbitrary units
  Globalfluo assay 3: 22222960 arbitrary units
  Mean globalfluo: 21457640 arbitrary units
  Survival rate (%): 71%
[Micafungin] log μM 2
  Globalfluo assay 1: 23318050 arbitrary units
  Globalfluo assay 2: 20442770 arbitrary units
  Globalfluo assay 3: 22906760 arbitrary units
  Mean globalfluo: 22222527 arbitrary units
  Survival rate (%): 74%
[Micafungin] log μM 2.176091
  Globalfluo assay 1: 20166170 arbitrary units
  Globalfluo assay 2: 24333680 arbitrary units
  Globalfluo assay 3: 26066530 arbitrary units
  Mean globalfluo: 23522127 arbitrary units
  Survival rate (%): 79%
[Micafungin] log μM −0.154902
  Globalfluo assay 1: 3831476 arbitrary units
  Globalfluo assay 2: 4395798 arbitrary units
  Globalfluo assay 3: 3538568 arbitrary units
  Mean globalfluo: 3921947 arbitrary units
  Survival rate (%): 0%
[Micafungin] log μM −0.30103
  Globalfluo assay 1: 4962690 arbitrary units
  Globalfluo assay 2: 4263110 arbitrary units
  Globalfluo assay 3: 4133198 arbitrary units
  Mean globalfluo: 4452999 arbitrary units
  Survival rate (%): 2%
[Micafungin] log μM −0.5228788
  Globalfluo assay 1: 4164368 arbitrary units
  Globalfluo assay 2: 5246152 arbitrary units
  Globalfluo assay 3: 3621246 arbitrary units
  Mean globalfluo: 4343922 arbitrary units
  Survival rate (%): 2%
[Micafungin] log μM −1
  Globalfluo assay 1: 4086038 arbitrary units
  Globalfluo assay 2: 5779074 arbitrary units
  Globalfluo assay 3: 4555233 arbitrary units
  Mean globalfluo: 4806782 arbitrary units
  Survival rate (%): 4%
[Micafungin] log μM −2
  Globalfluo assay 1: 4295861 arbitrary units
  Globalfluo assay 2: 4126418 arbitrary units
  Globalfluo assay 3: 4707699 arbitrary units
  Mean globalfluo: 4376659 arbitrary units
  Survival rate (%): 2%
[Micafungin] log μM −3
  Globalfluo assay 1: 4397869 arbitrary units
  Globalfluo assay 2: 4804046 arbitrary units
  Globalfluo assay 3: 3922702 arbitrary units
  Mean globalfluo: 4374872 arbitrary units
  Survival rate (%): 2%
